Experimental data published in patent US20240423937A1, “METHODS OF TREATING PAIN AND USES THEREOF” (University of Tennessee Research Foundation, priority 2021, published 2024).
Entries after “also recorded” stand apart in the source; their conditions may differ. Read-outs that look alike come from different tables or passages of the source.

Experiments:
[1] = tested on: Dutch belted rabbits; test: Single topical dose IOP lowering in Dutch belted rabbits; assay type: in vivo, rabbit; settings: single drop
Description: Non-limiting exemplary data: We made a discovery that can make PRG effective in treating vision loss in glaucoma. In addition to its presence in the anterior segment (FIG. 2), CACNA2D1 is also localized to RGCs (FIGS. 3A&B), as well as the ON (FIG. 3C). […] At 24 hours after dosing, IOP is still reduced by >20%.
Moreover, the combined effect of all three layers of our W/O/W ME is critical for enhancing the efficacy of PRG. […] Using this same model, we will evaluate our optimized formulations from Test 1.1.
Research Design and Methods: Dutch belted rabbits (Envigo Rabbitry; formerly Covance) will be used in this single-dose design study. Rabbits from this rabbitry can have higher baseline IOP values than those purchased from other rabbitries. Rabbits (equally balanced between males and females) will be acclimated to handling and IOP measurements for at least seven days before initiation of the study. Slit-lamp biomicroscopic and fundoscopic examinations will be performed before and after the study. Our top three formulations from Test 1.1 will be tested in this model using our methods^12. The IOP of both eyes will be measured using a rebound tonometer (Tono-Pen AVIA Vet, Reichert) immediately before the formulation application (baseline, 8 am) and at hourly time intervals after application until the IOP returns to baseline. Using a sterile micropipette tip, thirty microliters of the formulation containing PRG ME or blank control will be instilled topically into one eye of each rabbit, while the fellow eye will receive the formulation vehicle, and therefore serve as controls. Rabbits will be dosed daily at 8 am for 21 days, and IOP collected at 8 am (immediately pre-dosing) and at the time at which the maximum IOP reduction is measured (Tmax) using our methods^12. Curves similar to FIG. 16 will be generated. Biocompatibility of the antioxidant-containing formulations will be assessed using with slit lamp biomicroscopy as in FIG. 17. […]

[2] = tested on: BXD29 mice; test: Daily topical dosing of BXD29 mice for 6 weeks (IOP, optic nerve axons); assay type: in vivo, mouse
Text: Objective: An obstacle in this study is the in vivo assessment of any direct neuroprotective effects of PRG that are independent of IOP lowering. […] These characteristics make BXD29 ideal for evaluating the direct neuroprotective properties of PRG on RGCs by eliminating indirect effects that would be mediated through IOP reduction.
We have evidence to show, without wishing to be bound by theory, that topical dosing with our PRG ME is neuroprotective to RGC axons in the ON. We dosed BXD29 mice daily with PRG ME beginning at 5 weeks of age (FIG. 9A) before ON degeneration was marked. […] In contrast, ON from mice dosed with unmedicated ME had loss of axon profiles and increased areas of debris (FIG. 9C). The studies will evaluate the role of PRG as a RGC neuroprotectant and define its cellular mechanism of action.

[3] = Topical pregabalin IOP lowering, aqueous / without microemulsion; assay type: in vivo
Text: As a bidirectional component of our study, we corroborated an imputed single-nucleotide polymorphism (SNP) in CACNA2D1 within a human POAG population. Immunohistochemistry studies in humans, rabbits, and mice indicate that CACNA2D1 is located in the ciliary body (CB) and outflow structures (FIG. 2), both of which can influence IOP. […] These findings are consistent with earlier findings that implicated Ca^2+ flux as a regulator of IOP through actions in both the CB and outflow structures^13,14. This is highly significant because few approved IOP-lowering drugs act on both the inflow and outflow facilities, and that we can be able to clarify the implicated but yet unproven role of Ca^2+ flux on inflow and outflow control. On the therapeutic side, because the amplitude and duration of PRG-mediated IOP reduction in our studies were limited (17% IOP reduction that returns to baseline at 6 hr)^15, we then engineered a new topical extended release microemulsion (ME) formulation to increase PRG efficacy and duration of action^12. […] These findings indicate the development of PRG as a new class of glaucoma therapeutics with a MOA distinct from current approved IOP-lowering medications.
However, the amplitude and duration of response were limited and unpractical for clinical use. To increase the efficacy of PRG as an IOP-lowering drug, we engineered a new microemulsion topical formulation^12. Our formulation was designed as a water-in-oil-in water microemulsion with 40% and 60% of the PRG in the innermost and outermost aqueous phases, respectively. Compartmentalization of PRG in two aqueous phases supports both a rapid onset and long duration of IOP-lowering action. Drug release from the outermost aqueous phase is fast, allowing for rapid IOP reduction. To be released from the innermost aqueous phase, however, PRG must pass through two interfaces—the inner water/oil interface and the outer oil/water interface—after which it must diffuse through the viscous polymer solution that constitutes the outmost aqueous phase of our multilayered ME (FIG. 12). Collectively the movement across both interfaces slows movement of PRG from our formulation and supports the extended IOP-lowering effect. After diffusion from the outermost polymer, PRG is available for absorption through the cornea. To ensure that the formulation will remain on the corneal surface for enough time to allow for the sustained release of the drug, the outermost hydrogel layer is prepared from Carbopol 981, which has excellent bio-adhesive properties.

[4] = biological target: CACNA2D1 (Homo sapiens, UniProt P54289); settings: cited from earlier work
[5] = biological target: CACNA2D2 (Homo sapiens, UniProt Q9NY47); settings: cited from earlier work
[6] = tested on: γ-aminobutyric acid (GABA) receptors; settings: cited from earlier work
[7] = not told; cited from earlier work
[8] = topical aqueous / initial PRG formulation
[9] = with versus without the microemulsion, species not stated

CACNA2D1, sequence (P54289 25-1103): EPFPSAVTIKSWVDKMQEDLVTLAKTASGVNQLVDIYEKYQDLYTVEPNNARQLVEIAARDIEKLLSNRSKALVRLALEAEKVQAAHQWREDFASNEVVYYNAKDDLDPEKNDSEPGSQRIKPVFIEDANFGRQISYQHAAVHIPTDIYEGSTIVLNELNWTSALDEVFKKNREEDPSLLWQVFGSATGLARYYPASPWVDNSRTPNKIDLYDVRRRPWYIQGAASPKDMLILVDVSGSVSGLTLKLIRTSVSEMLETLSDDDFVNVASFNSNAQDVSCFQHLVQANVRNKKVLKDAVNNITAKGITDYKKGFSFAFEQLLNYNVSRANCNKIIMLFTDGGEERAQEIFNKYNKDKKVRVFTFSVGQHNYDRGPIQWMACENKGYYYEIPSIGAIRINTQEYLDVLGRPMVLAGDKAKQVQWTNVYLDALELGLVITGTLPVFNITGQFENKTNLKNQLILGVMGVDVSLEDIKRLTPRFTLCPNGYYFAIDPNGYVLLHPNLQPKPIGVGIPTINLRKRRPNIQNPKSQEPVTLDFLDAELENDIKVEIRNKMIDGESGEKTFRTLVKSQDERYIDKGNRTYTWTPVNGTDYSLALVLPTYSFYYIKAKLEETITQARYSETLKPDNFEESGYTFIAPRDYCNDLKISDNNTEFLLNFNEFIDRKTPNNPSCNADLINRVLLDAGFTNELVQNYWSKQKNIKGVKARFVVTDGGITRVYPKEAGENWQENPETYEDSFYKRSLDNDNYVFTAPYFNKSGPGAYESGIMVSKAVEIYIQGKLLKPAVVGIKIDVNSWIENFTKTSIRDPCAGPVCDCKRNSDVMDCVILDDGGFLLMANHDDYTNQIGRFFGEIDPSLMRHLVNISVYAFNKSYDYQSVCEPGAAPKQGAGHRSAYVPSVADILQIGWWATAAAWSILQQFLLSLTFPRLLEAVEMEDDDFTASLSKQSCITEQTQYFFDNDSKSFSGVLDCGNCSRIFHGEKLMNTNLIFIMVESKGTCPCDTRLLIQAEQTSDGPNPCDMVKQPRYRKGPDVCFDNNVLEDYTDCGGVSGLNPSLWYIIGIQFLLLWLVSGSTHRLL
CACNA2D2, sequence (Q9NY47 19-1150, species assumed): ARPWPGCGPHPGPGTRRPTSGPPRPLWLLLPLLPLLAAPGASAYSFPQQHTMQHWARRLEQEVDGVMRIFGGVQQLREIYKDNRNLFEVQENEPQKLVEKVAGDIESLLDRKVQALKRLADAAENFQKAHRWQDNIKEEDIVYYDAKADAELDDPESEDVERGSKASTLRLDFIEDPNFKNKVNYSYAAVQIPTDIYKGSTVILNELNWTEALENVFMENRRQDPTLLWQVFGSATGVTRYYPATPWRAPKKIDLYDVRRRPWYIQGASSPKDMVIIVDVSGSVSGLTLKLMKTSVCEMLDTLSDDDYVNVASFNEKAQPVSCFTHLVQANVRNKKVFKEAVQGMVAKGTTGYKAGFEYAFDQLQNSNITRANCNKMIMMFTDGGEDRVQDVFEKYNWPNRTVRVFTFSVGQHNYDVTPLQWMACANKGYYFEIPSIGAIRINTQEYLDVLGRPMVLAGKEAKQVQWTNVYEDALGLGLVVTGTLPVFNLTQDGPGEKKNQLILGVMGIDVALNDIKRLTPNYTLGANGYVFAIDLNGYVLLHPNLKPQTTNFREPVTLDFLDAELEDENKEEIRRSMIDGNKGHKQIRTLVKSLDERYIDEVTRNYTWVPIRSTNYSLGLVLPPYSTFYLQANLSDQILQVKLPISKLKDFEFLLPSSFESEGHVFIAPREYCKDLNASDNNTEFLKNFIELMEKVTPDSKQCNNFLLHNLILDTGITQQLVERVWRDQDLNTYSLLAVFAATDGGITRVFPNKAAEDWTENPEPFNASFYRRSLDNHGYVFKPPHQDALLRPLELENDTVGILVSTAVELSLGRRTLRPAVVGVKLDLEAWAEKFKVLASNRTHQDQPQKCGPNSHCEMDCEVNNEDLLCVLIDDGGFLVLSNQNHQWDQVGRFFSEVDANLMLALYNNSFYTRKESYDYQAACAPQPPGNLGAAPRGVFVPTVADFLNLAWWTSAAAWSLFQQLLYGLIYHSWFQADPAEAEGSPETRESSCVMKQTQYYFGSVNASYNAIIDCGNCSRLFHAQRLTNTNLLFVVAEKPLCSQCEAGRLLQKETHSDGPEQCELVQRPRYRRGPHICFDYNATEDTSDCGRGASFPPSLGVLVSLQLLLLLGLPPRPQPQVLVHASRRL

## CC(C)C[C@H](CN)CC(=O)O [pregabalin]
[1]
  AUC of IOP reduction: 38 mmHg·hr
  maximal % reduction in IOP: 30%
  time at which IOP returns to baseline: 10 h
[2]; daily topical dosing for 6 weeks from 5 weeks of age
  optic nerve axon preservation: prevents degeneration of axons in the ON even in the absence of a reduction in IOP
[2]; topical, up to 6 weeks of daily dosing
  IOP response of BXD29 mice: unresponsive
[3]; [8]
  IOP reduction: 17%
  return of IOP to baseline after dosing: 6 h
[3]; topical dosing
  dose dependence of IOP lowering: dose dependent manner
[3]; [9]
  IOP lowering: about 20%
  return of IOP to baseline after dosing: 8 to 10 h
[4]
  affinity / specificity for CACNA2D1: antagonist with specificity for CACNA2D1 and high specificity for CACNA2D1 and bind
[4]; listed as PRG
  affinity / specificity for CACNA2D1: high affinity and specificity; also recorded: binds with high affinity
[4]; listed as Pregabalin
  affinity / specificity for CACNA2D1: high affinity and specificity
[5]
  binding to CACNA2D2: bind
[6]
  binding to GABA receptors: does not bind
[7]
  membrane permeability: high membrane permeability
